{
  "source": "patent US7378530B2",
  "about": "“Anti-cancer and anti-microbial 5-membered heterocyclic compounds” (Nereus Pharmaceuticals, Inc., priority 2005, dated 2008)",
  "key": {"[1]": {"tested_on": "Staphylococcus aureus - MSSA", "experiment": "Antimicrobial assay, MIC (NCCLS M7-A5)", "type": "cell-based, Staphylococcus aureus (methicillin sensitive)", "procedure": "(§1) Minimum inhibitory concentrations (MICs) were determined according to the National Committee for Clinical Laboratory Standards (NCCLS) susceptibility test guideline M7-A5 (Ferraro, M. 2001 Methods for Dilution Antimicrobial Susceptibility Tests for Bacteria that Grow Aerobically; Approved Standard (NCCLS). National Committee for Clinical Laboratory Standards (NCCLS), Villanova, which is incorporated herein by reference in its entirety). The compound of formula VI was tested in DMSO while the compound of formula VII was tested in aqueous MeOH. The compound of formulae VIII and IX were tested in DMSO."}, "H. inf. 49247": {"tested_on": "H. inf. 49247", "experiment": "Antimicrobial assay, MIC (NCCLS M7-A5)", "type": "cell-based", "details": "Haemophilus influenzae", "procedure": "as §1"}, "H. inf. 49766": {"tested_on": "H. inf. 49766", "experiment": "Antimicrobial assay, MIC (NCCLS M7-A5)", "type": "cell-based", "details": "Haemophilus influenzae", "procedure": "as §1"}, "[2]": {"tested_on": "Staphylococcus aureus - MRSA", "experiment": "Antimicrobial assay, MIC (NCCLS M7-A5)", "type": "cell-based, Staphylococcus aureus (methicillin resistant)", "procedure": "as §1"}, "PSSP": {"tested_on": "PSSP", "experiment": "Antimicrobial assay, MIC (NCCLS M7-A5)", "type": "cell-based, Streptococcus pneumonia (penicillin sensitive)", "details": "Streptococcus pneumoniae", "procedure": "as §1"}, "[3]": {"tested_on": "Gram-negative microorganism Haemophilus influenzae", "experiment": "Antimicrobial assays, summary for Haemophilus influenzae", "type": "cell-based", "procedure": "as §1"}, "[4]": {"tested_on": "Gram-positive microorganisms tested", "experiment": "Antimicrobial assays, summary for Gram-positive microorganisms", "type": "cell-based", "procedure": "as §1"}, "S. epi. 700582": {"tested_on": "S. epi. 700582", "experiment": "Antimicrobial assay, MIC (NCCLS M7-A5)", "type": "cell-based, Staphylococcus epidermis (multiple drug resistant)", "details": "Staphylococcus", "procedure": "as §1"}, "S. epi. 700578": {"tested_on": "S. epi. 700578", "experiment": "Antimicrobial assay, MIC (NCCLS M7-A5)", "type": "cell-based, Staphylococcus epidermis (multiple drug resistant)", "details": "Staphylococcus", "procedure": "as §1"}, "PRSP": {"tested_on": "PRSP", "experiment": "Antimicrobial assay, MIC (NCCLS M7-A5)", "type": "cell-based, Streptococcus pneumonia (penicillin resistant)", "details": "Streptococcus pneumoniae", "procedure": "as §1"}, "E. c. 25922": {"tested_on": "E. c. 25922", "experiment": "Antimicrobial assay, MIC (NCCLS M7-A5)", "type": "cell-based", "procedure": "as §1"}, "E. c. imp": {"tested_on": "E. c. imp", "experiment": "Antimicrobial assay, MIC (NCCLS M7-A5)", "type": "cell-based", "procedure": "as §1"}, "Candida albicans": {"tested_on": "Candida albicans", "experiment": "Antimicrobial assay, MIC (NCCLS M7-A5)", "type": "cell-based", "procedure": "as §1"}, "E. c. MCR106": {"tested_on": "E. c. MCR106", "experiment": "Antimicrobial assay, MIC (NCCLS M7-A5)", "type": "cell-based", "procedure": "as §1"}, "VRE": {"tested_on": "VRE", "experiment": "Antimicrobial assay, MIC (NCCLS M7-A5)", "type": "cell-based, Enterococcus faecium (vancomycin resistant)", "details": "Enterococcus", "procedure": "as §1"}, "VSE": {"tested_on": "VSE", "experiment": "Antimicrobial assay, MIC (NCCLS M7-A5)", "type": "cell-based, Enterococcus faecalis (vancomycin sensitive)", "details": "Enterococcus faecalis", "procedure": "as §1"}, "B16-F10 cells": {"tested_on": "B16-F10 cells", "experiment": "Growth inhibition of murine melanoma B16-F10 cells (resazurin fluorescence)", "type": "cell-based", "procedure": "B16-F10 (ATCC; CRL-6475) a murine melanoma cell line was maintained in complete Dulbecco's Modification of Eagle's Medium (DMEM) (DMEM supplemented with 10% (v/v) Fetal bovine serum, 2 mM glutamine, 10 mM HEPES and Penicillin/Streptomycin at 100 IU/ml and 100 μg/ml respectively). The cells were cultured in an incubator at 37° C. in 5% CO2 and 95% humidified air. […] 20 mM stock solutions of formula VI were prepared in 100% DMSO. 10× concentrated serial dilutions of formula VI were prepared in complete media. Ten μl volumes of the serial dilutions were added to the test wells in triplicate resulting in final concentrations ranging from 20 μM to 6.32 nM. The plates were returned to the incubator for 48 hours. The final concentration of DMSO was 0.25% in all samples. Following 48 hours of drug exposure, 10 μl of 0.2 mg/ml resazurin (obtained from Sigma-Aldrich Chemical Co.) in Mg^2+, Ca^2+ free phosphate buffered saline was added to each well and the plates were returned to the incubator for 3-6 hours. Since living cells metabolize Resazurin, the fluorescence of the reduction product of Resazurin was measured using a Fusion microplate fluorometer (Packard Bioscience) with λex=535 nm and λem=590 nm filters. Resazurin dye in medium without cells was used to determine the background, which was subtracted from the data for all experimental wells. […]"}},
  "data": [
    {"smiles": "CCCCCCC/C(C)=C/C(=O)CC(=N)OC(CCCC)C(=O)O", "note": "(stereo not shown) [Formula IX]", "values": [
      {"measurement": "MIC", "setting": "[1]; tested in DMSO", "value": 24, "unit": "µg/mL"},
      {"measurement": "MIC", "setting": "H. inf. 49247; tested in DMSO", "value": "> 32", "unit": "µg/mL"},
      {"measurement": "MIC", "setting": "H. inf. 49766; tested in DMSO", "value": "> 32", "unit": "µg/mL"},
      {"measurement": "MIC", "setting": "[2]; tested in DMSO", "value": "> 32", "unit": "µg/mL"},
      {"measurement": "MIC", "setting": "PSSP; tested in DMSO", "value": "> 32", "unit": "µg/mL"}
    ]},
    {"smiles": "CCCCCC/C(C)=C/C(=O)C=C1NC(=O)C(CCCC)O1", "note": "(stereo not shown) [Formula VIII]", "values": [
      {"measurement": "activity against the Gram-negative microorganism Haemophilus influenzae (statement in words)", "setting": "[3]", "value": "weakly active"},
      {"measurement": "MIC", "setting": "[1]; tested in DMSO", "value": 4, "unit": "µg/mL"},
      {"measurement": "MIC", "setting": "H. inf. 49247; tested in DMSO", "value": 16, "unit": "µg/mL"},
      {"measurement": "MIC", "setting": "H. inf. 49766; tested in DMSO", "value": 5, "unit": "µg/mL"},
      {"measurement": "MIC", "setting": "[2]; tested in DMSO", "value": 3, "unit": "µg/mL"},
      {"measurement": "anti-bacterial activity versus the Gram-positive microorganisms tested (statement in words)", "setting": "[4]", "value": "possess anti-bacterial activity"},
      {"measurement": "MIC", "setting": "PSSP; tested in DMSO", "value": 10, "unit": "µg/mL"}
    ]},
    {"smiles": "CCCCCCC/C(C)=C/C(=O)C=C1NC(=O)C(CCCCC)O1", "note": "(stereo not shown) [Formula VII]", "values": [
      {"measurement": "activity against the Gram-negative microorganism Haemophilus influenzae (statement in words)", "setting": "[3]", "value": "weakly active"},
      {"measurement": "MIC", "setting": "S. epi. 700582; tested in aqueous MeOH", "value": 0.75, "unit": "µg/mL"},
      {"measurement": "MIC", "setting": "S. epi. 700578; tested in aqueous MeOH", "value": 1.25, "unit": "µg/mL"},
      {"measurement": "MIC", "setting": "[1]; tested in aqueous MeOH", "value": 6, "unit": "µg/mL"},
      {"measurement": "MIC", "setting": "PRSP; tested in aqueous MeOH", "value": 6, "unit": "µg/mL"},
      {"measurement": "MIC", "setting": "H. inf. 49247; tested in aqueous MeOH", "value": 12, "unit": "µg/mL"},
      {"measurement": "MIC", "setting": "E. c. 25922; tested in aqueous MeOH", "value": "> 32", "unit": "µg/mL"},
      {"measurement": "MIC", "setting": "H. inf. 49766; tested in aqueous MeOH", "value": 16, "unit": "µg/mL"},
      {"measurement": "MIC", "setting": "E. c. imp; tested in aqueous MeOH", "value": "> 32", "unit": "µg/mL"},
      {"measurement": "MIC", "setting": "Candida albicans; tested in aqueous MeOH", "value": "> 32", "unit": "µg/mL"},
      {"measurement": "MIC", "setting": "E. c. MCR106; tested in aqueous MeOH", "value": "> 32", "unit": "µg/mL"},
      {"measurement": "MIC", "setting": "[2]; tested in aqueous MeOH", "value": 1.5, "unit": "µg/mL"},
      {"measurement": "MIC", "setting": "VRE; tested in aqueous MeOH", "value": 1.5, "unit": "µg/mL"},
      {"measurement": "MIC", "setting": "VSE; tested in aqueous MeOH", "value": 3, "unit": "µg/mL"},
      {"measurement": "anti-bacterial activity versus the Gram-positive microorganisms tested (statement in words)", "setting": "[4]", "value": "possess anti-bacterial activity"},
      {"measurement": "MIC", "setting": "PSSP; tested in aqueous MeOH", "value": 8, "unit": "µg/mL"}
    ]},
    {"smiles": "CCCCCCC/C(C)=C/C(=O)C=C1NC(=O)C(CCCC)O1", "note": "(stereo not shown) [Formula VI]", "values": [
      {"measurement": "activity against the Gram-negative microorganism Haemophilus influenzae (statement in words)", "setting": "[3]", "value": "weakly active"},
      {"measurement": "MIC", "setting": "S. epi. 700582; tested in DMSO", "value": 0.54, "unit": "µg/mL"},
      {"measurement": "MIC", "setting": "S. epi. 700578; tested in DMSO", "value": 0.54, "unit": "µg/mL"},
      {"measurement": "MIC", "setting": "[1]; tested in DMSO", "value": 0.88, "unit": "µg/mL"},
      {"measurement": "MIC", "setting": "PRSP; tested in DMSO", "value": 4.67, "unit": "µg/mL"},
      {"measurement": "MIC", "setting": "H. inf. 49247; tested in DMSO", "value": 12, "unit": "µg/mL"},
      {"measurement": "MIC", "setting": "E. c. 25922; tested in DMSO", "value": "> 32", "unit": "µg/mL"},
      {"measurement": "MIC", "setting": "H. inf. 49766; tested in DMSO", "value": 12, "unit": "µg/mL"},
      {"measurement": "MIC", "setting": "E. c. imp; tested in DMSO", "value": "> 32", "unit": "µg/mL"},
      {"measurement": "MIC", "setting": "Candida albicans; tested in DMSO", "value": "> 32", "unit": "µg/mL"},
      {"measurement": "MIC", "setting": "E. c. MCR106; tested in DMSO", "value": "> 32", "unit": "µg/mL"},
      {"measurement": "MIC", "setting": "[2]; tested in DMSO", "value": 1.04, "unit": "µg/mL"},
      {"measurement": "MIC", "setting": "VRE; tested in DMSO", "value": 1.83, "unit": "µg/mL"},
      {"measurement": "MIC", "setting": "VSE; tested in DMSO", "value": 3.67, "unit": "µg/mL"},
      {"measurement": "anti-bacterial activity versus the Gram-positive microorganisms tested (statement in words)", "setting": "[4]", "value": "possess anti-bacterial activity"},
      {"measurement": "MIC", "setting": "PSSP; tested in DMSO", "value": 2.58, "unit": "µg/mL"},
      {"measurement": "growth of B16-F10 tumor cells (statement in words)", "setting": "B16-F10 cells", "value": "inhibits the growth"},
      {"measurement": "EC50", "setting": "B16-F10 cells; Mus musculus, B16-F10, 48 hours drug exposure, mean ± standard deviation of three independent experiments, read-out: EC50 against B16-F10 cells", "value": "6 ± 2.6", "unit": "µM"}
    ]}
  ]
}
